Entries after “also recorded” stand apart in the source; their conditions may differ.
Legend:
[1] = Water activity (aw) slurries in mixed aqueous/organic solvent systems, XRPD; assay type: physicochemical; settings: for Result (solid form after slurry): ambient; for Water activity at which the form is the most stable form: from water activity slurries and RH stressing, Form C: above 0.12 aw up to the value
Text: (§1) To investigate the stability of the four pure crystalline forms of Alpha-1062 Gluconate, water activity (aw) slurries using a variety of mixed aqueous/organic solvent systems (Table 6) along with relative humidity stressing (Table 7) were used to define the regions of stability for the given hydrates of Alpha-1062 Gluconate.

[2] = Relative humidity stressing of solid samples, XRPD; assay type: physicochemical
Text: as §1

[3] = Polymorph screen: ambient slurries of Form A in solvents, XRPD; assay type: physicochemical; settings: 14 d
Protocol: A polymorph screening study was initiated to investigate the presence and identity of various solid materials that may be possible for Alpha-1062 Gluconate. This study used lot CA19-1144 as the starting material and utilized various solvent systems and conditions to isolate and study the materials produced during the studies (Table 5). The various materials were analyzed by XRPD and the various solid forms identified as shown (FIG. 6).

[4] = Dynamic vapor sorption (DVS) isotherm; assay type: physicochemical; settings: for DVS hysteresis: 5 to 95 to 5% RH; for XRPD of post DVS sample (solid form): material recovered after DVS cycle ending at 5% RH
Text: As used herein, DVS (Dynamic Vapor Sorption) is a gravimetric technique to measure the rate and amount of absorption of a solvent by a sample under controlled conditions. […]

[5] = Heat / vacuum stressing analysed by XRPD; assay type: physicochemical
Protocol: Form B: Alpha-1062 Gluconate, Sample 8235-82-08 (Table 10). Form B is a tetrahydrate crystalline lattice. It appears that at least one of the four water sites in the crystal lattice is somewhat labile. […] The formula unit volume of 772 Å^3 calculated from the indexing results is larger than Form A by 84 Å^3. […] A broad endotherm with an onset of 66° C. (concurrent with weight loss in the TGA) is observed in the DSC consistent with desolvation. […] Upon desorption, 1.8% weight loss from 95-15% RH followed by 6.8% weight loss from 15-5% RH was observed. The DVS data was corrected for water content measured by KF at 57% RH (FIG. 18). A stable plateau of between 3.6 and 3.9 mol/mol of water for Form B is evident between 15 and 85% RH.
Form C: Alpha-1062 Gluconate, Sample 8235-87-02 (Table 11). Form C was determined to be a monohydrate crystal lattice occupied at only about 0.4 to 0.5 mol/mol of water. […] The XRPD pattern was successfully indexed by a single primitive monoclinic unit cell. The formula unit volume of 706 Å^3 calculated from the indexing results is larger than Form A by 18 Å^3. […] An endotherm with an onset of 119° C. is observed in the DSC. • Form C (sample 8235-92-04) was held at 11% RH for seven days and analyzed by XRPD and DSC for comparison (sample 8296-08-01). […] The DVS data was corrected for water content measured by KF at 11% RH (FIG. 25). […]

[6] = Storage and XRPD reanalysis; assay type: physicochemical; settings: reanalyzed
Text: Material G: Alpha-1062 Gluconate, Samples 8235-87-01 and 8235-100-02 (Table 15). Material G has been observed from evaporative experiments of both 1,4-dioxane and THF. […] Based on the spontaneous conversion, Material G is metastable with Form B at that condition. Material G was not observed during any of the water activity slurries or relative humidity work.
Amorphous: Alpha-1062 Gluconate, sample 8235-76-13 (Table 16) has been observed from slow evaporation from methanol (Table 5). […] No significant impurity increases were observed by ^1H NMR. • Thermal Analysis (FIG. 35). A cyclic DSC was conducted to determine the glass transition (Tg) temperature of the amorphous solid. The glass transition temperature was determined to be near 41° C. Decomposition was observed upon continued heating with no nucleation.

[7] = steady-state, human brain vs blood; cited from earlier work
[8] = IPA/H2O 97:03 v/v, 0.31 aw, 13 d
[9] = MEK/H2O 98:02 v/v, 0.42 aw, 13 d
[10] = water activity slurries and RH stressing

COc1ccc2c3c1O[C@H]1C[C@@H](OC(=O)c4ccccc4)C=C[C@@]31CCN(C)C2.O=C(O)C(O)C(O)C(O)C(O)CO [Form A, Alpha-1062 gluconate]
Result (solid form after slurry) ([1]; MEK/H2O 98:02 v/v, 0.42 aw, 1 d): C + B | Result (solid form after slurry) ([1]; MEK/H2O 98:02 v/v, 0.42 aw, 2 d): C + B | Result (solid form after slurry) ([1]; MEK/H2O 99:01 v/v, 0.27 aw, 7 d): C + A | Water activity at which the form is the most stable form [1]: less than 0.12 aw | Result (solid form by XRPD) ([2]; 43% RH, 5 d): kinetically stable | Result (solid form by XRPD) ([2]; 75% RH, 1 d): D + minor A | Result (solid form by XRPD) ([2]; 75% RH, 2 d): D + minor B | Result (solid form after slurry) ([3]; EtOH): C + A | Result (solid form after slurry) ([3]; acetone): C + D | Hygroscopicity (DVS assessment) [4]: significant hygroscopicity above 75% RH | DVS hysteresis [4]: Hysteresis was observed | DVS hysteresis ([4]; listed as CA19-1144): hysteresis observed | DVS wt. gain ([4]; from 5 to 75% RH (sorption)): 0.57 % wt. | DVS wt. gain ([4]; from 5 to 75% RH (sorption), listed as CA19-1144): 0.57% wt. gain from 5 to 75% RH | DVS wt. gain ([4]; from 75 to 85% RH (sorption)): 2.97 % wt. | DVS wt. gain ([4]; from 75 to 85% RH (sorption), listed as CA19-1144): 2.96% wt. gain from 75 to 85% RH | DVS wt. loss ([4]; from 85 to 5% RH (desorption)): 2.98% wt. loss from 85 to 5% RH | DVS wt. gain ([4]; from 85 to 95% RH (sorption)): 8.7 % wt. | DVS wt. gain ([4]; from 85 to 95% RH (sorption), listed as CA19-1144): 8.67% wt. gain from 85 to 95% RH | DVS wt. loss ([4]; from 95 to 85% RH (desorption)): 1.73% wt. loss from 95 to 85% RH | XRPD of post DVS sample (solid form) [4]: Form A+minor peaks of Form B | XRPD of post DVS sample (solid form) ([4]; listed as CA19-1144): Form A + B (trace) | Water gain at stable desorption plateau ([4]; weight within stable plateau on desorption): more than 3 mol/mol

COc1ccc2c3c1O[C@H]1C[C@@H](OC(=O)c4ccccc4)C=C[C@@]31CCN(C)C2.O=C(O)C(O)C(O)C(O)C(O)CO [Form B, Alpha-1062 gluconate]
Result (solid form after slurry) [1, 8]: C + B | Result (solid form after slurry) [1, 9]: C + B | Water activity at which the form is the most stable form [1]: Above 0.5 aw | Water activity of solvent systems in which the form was observed ([1]; in equilibrium Form B/Form C between 0.31 and 0.52 aw): above 0.52 aw | Result (solid form by XRPD) ([2]; 0% RH, P2O5, 1 d): dehydrate to Form A | Result (solid form by XRPD) ([2]; 57% RH, 4 d): remained Form B | Solid form by XRPD after heating ([5]; 40-75° C., 10 min (in DSC)): partial dehydration and conversion to a mixture of Forms D and C; also recorded: Form D + C + peak | Hygroscopicity (DVS assessment) [4]: limited hygroscopicity | DVS wt. loss ([4]; from 15-5% RH (desorption)): 6.8% wet loss from 15-5% RH % wt. | XRPD of post DVS sample (solid form) [4]: anhydrous Form A

COc1ccc2c3c1O[C@H]1C[C@@H](OC(=O)c4ccccc4)C=C[C@@]31CCN(C)C2.O=C(O)C(O)C(O)C(O)C(O)CO [Form C + B, Alpha-1062 gluconate]
Result (solid form by XRPD) ([2]; 0% RH, P2O5, 1 d): C+ A

COc1ccc2c3c1O[C@H]1C[C@@H](OC(=O)c4ccccc4)C=C[C@@]31CCN(C)C2.O=C(O)C(O)C(O)C(O)C(O)CO [Form C, Alpha-1062 gluconate]
Result (solid form after slurry) [1, 8]: C + B | Result (solid form after slurry) [1, 9]: C + B | Water activity at which the form is the most stable form [1]: up to 0.5 aw | Result (solid form by XRPD) ([2]; 0% RH, P2O5, 1 d): C + minor A | Result (solid form by XRPD) ([2]; 11% RH, 4 d): remained Form C | Result (solid form by XRPD) ([2]; 11% RH, 7 d): remained Form C | Solid form by XRPD after vacuum storage ([5]; vacuum, 45° C., 3 hrs): remained Form C with the presence of a minor amount of Form A | Hygroscopicity (DVS assessment) [4]: significant hygroscopicity above 75% RH | DVS hysteresis [4]: hysteresis observed | Water retained after DVS ([4]; DVS corrected for KF water content at 11% RH): ~1.4 mol/mol | DVS wt. gain ([4]; from 5-65% RH (sorption)): 0% wt. gain from 5-65% RH | DVS wt. gain ([4]; from 5 to 75% RH (sorption)): no significant weight gain | DVS wt. retained ([4]; from 75-5% RH (desorption)): ~3% wt. retained from 75-5% RH | XRPD of post DVS sample (solid form) [4]: mixture of Forms C and B; also recorded: Form C + B

COc1ccc2c3c1O[C@H]1C[C@@H](OC(=O)c4ccccc4)C=C[C@@]31CCN(C)C2.O=C(O)C(O)C(O)C(O)C(O)CO [Form D + A, Alpha-1062 gluconate]
Result (solid form by XRPD) ([2]; 75% RH, 4 d): B + D

COc1ccc2c3c1O[C@H]1C[C@@H](OC(=O)c4ccccc4)C=C[C@@]31CCN(C)C2.O=C(O)C(O)C(O)C(O)C(O)CO [Form D + B, Alpha-1062 gluconate]
Result (solid form by XRPD) ([2]; 75% RH, 1 d): D + B

COc1ccc2c3c1O[C@H]1C[C@@H](OC(=O)c4ccccc4)C=C[C@@]31CCN(C)C2.O=C(O)C(O)C(O)C(O)C(O)CO [Form D, Alpha-1062 gluconate]
Result (solid form after slurry) [1, 8]: C + B | Result (solid form after slurry) [1, 9]: C + B | Water activity at which the form is the most stable form [1]: does not appear stable at any of the conditions evaluated | Result (solid form by XRPD) ([2]; 75% RH, 1 d): Form D + minor B | Relative humidity at which the form converts to Form C [2, 10]: < 52 % RH | Relative humidity of extended exposure at which the form converts to Form B [2, 10]: ≥ 52 % RH

COc1ccc2c3c1O[C@H]1C[C@@H](OC(=O)c4ccccc4)C=C[C@@]31CCN(C)C2.O=C(O)C(O)C(O)C(O)C(O)CO [Forms B + D, Alpha-1062 gluconate]
Result (solid form after slurry) ([1]; MEK/H2O 97:03 v/v, 0.52 aw, 7 d): B + C

COc1ccc2c3c1O[C@H]1C[C@@H](OC(=O)c4ccccc4)C=C[C@@]31CCN(C)C2.O=C(O)C(O)C(O)C(O)C(O)CO [Material G, Alpha-1062 gluconate]
Solid form by XRPD on reanalysis ([6]; 5 weeks): partially converted to Form B; also recorded: Material G + Form B

COc1ccc2c3c1O[C@H]1C[C@@H](OC(=O)c4ccccc4)C=C[C@@]31CCN(C)C2.O=C(O)C(O)C(O)C(O)C(O)CO [amorphous Alpha-1062 Gluconate, Alpha-1062 gluconate]
Solid form by XRPD on reanalysis ([6]; 5 weeks): amorphous | Solid form by XRPD on reanalysis ([6]; 5 weeks, listed as Amorphous): remain amorphous | Solid form by XRPD on reanalysis ([6]; 13 days): Form B + C | Solid form by XRPD on reanalysis ([6]; 13 days, listed as Amorphous): spontaneously crystallized to a mixture of Forms B and C

COc1ccc2c3c1O[C@H]1C[C@@H](O)C=C[C@@]31CCN(C)C2 [galantamine]
brain-to-blood concentration ratio (BBCR) [7]: < 2

— patent US12157743B2, “Solid forms of Alpha-1062 gluconate” (priority 2021, dated 2024)
